Common to all, as to assay type: physicochemical
Data set [1] is described as follows: Magnetic susceptibility by the Evans method (1H NMR shift of residual CDCl3 proton). Conditions: solution in CDCl3; for χmass: mass susceptibility; for χmol: molar susceptibility, χmol = MW*χmass. The text has this:
For the prepared molecules of structure (I) in table 2 below, the paramagnetic properties have been evaluated by the Evans method [D.F. Evans, J. Chem. Soc. 2003 (1959)]. This is based on nuclear magnetic measurements (NMR), and relies on the fact that the chemical shift (position) of the ^1H NMR signals of a molecule depend on the bulk susceptibility of the medium. In particular, the resonance line of the residual proton of CDCl3 (i.e. the NMR solvent) was used as a reference, by comparing its chemical shift for the pure CDCl3 and for a solution containing the molecules of structure (I).
As expected the mass susceptibility of the different complexes (molecules of structure (I)) vary depending on mass ratio between the paramagnetic ion (e.g. Ho^3+) and the organic DTPA-ligand (thus, it is smaller for the bigger ligands). […] Magnetism and magnetic materials. Cambridge University Press, 2010]

Data set [2] is described as follows: Verdet coefficient measurement (magneto-optic, Faraday effect). The settings on record: 1 M aqueous solution (control). Here is the method: The composition is prepared according to example 5.1 but using isofol 12 to obtain a weight fraction of 23 % w/w of isofol 12, where Tb^3+ is used as the paramagnetic ion in structure (I). The Verdet coefficient was determined to be 17.1 rad T^-1 m^-1 at 410 nm wavelength, and 8.0 rad T^-1 m^-1 at 600 nm. As a control a 1 M TbCl3 aqueous solution was measured using the same method resulting in a Verdet coefficient of 14.1 rad T^-1 m^-1 at 410 nm wavelength, and 4.9 rad T^-1 m^-1 at 600 nm in agreement with literature.

A short description of data set [3]: Preparation of paramagnetic oil with paraffin (mineral) oil. The settings on record: typically 10-30 wt%, as co-component. On the procedure:
The complex 3 (molecules of structure (I)) is dissolved in the minimum amount of dichloromethane, so to have a homogeneous solution, after that a fatty alcohol (e.g. isofol® 12) is added (typically 10-40 wt%), and the resultant mixture rotary evaporated under high vacuum to completely eliminate the volatile dichloromethane, resulting in the target homogeneous transparent paramagnetic oil.
The composition is prepared according to example 5.1 but using paraffin (mineral) oil (typically 10-30 wt%) as co-component instead of the fatty alcohol.
This method is particularly suitable when using complexes with long chains (preferably more than 8 carbon atoms).

As for `CC(=O)[O-].CC(=O)[O-].CC(=O)[O-].O.[Ho+3]` [Ho(AcO)3 *nH2O, reference compound], in data set [1], the χmass is given as 11.0 (cm^3 g^-1) /10-5 and the χmol was 0.037 cm^3 mol^-1.
On to `[Cl][Tb]([Cl])[Cl]` [TbCl3], for which the Verdet coefficient was 14.1 rad T^-1 m^-1 in data set [2] (410 nm wavelength) and 4.9 rad T^-1 m^-1 in data set [2] (600 nm).
Regarding Ho-DTPA-(1-octadecanol)2, the “appearance of composition with mineral oil” value in data set [3] is “homogeneous transparent fluid reacting to magnetic fields”.
Regarding Ho-DTPA-(2-octyl-1-dodecanol)2, in data set [1], the χmass is listed as 3.72 (cm^3 g^-1) /10-5 and the χmol is recorded as 0.0415 cm^3 mol^-1.
For Ho-DTPA-(hexanol)2, in that order: 6.04 (cm^3 g^-1) /10-5 and 0.0437 cm^3 mol^-1.
For Ho-DTPA-(2-butyl-1-octanol)2, in data set [1], the χmass is 4.98 (cm^3 g^-1) /10-5 and the χmol stood at 0.0350 cm^3 mol^-1.
For Ho-DTPA-(3,7-dimethy-1-octanol)2, in that order: 5.05 (cm^3 g^-1) /10-5 and 0.0422 cm^3 mol^-1.

These data come from EP3514141A1, “MAGNETIC MOLECULES” (Centre National de la Recherche Scientifique, priority 2018, dated 2019).
